Assay results reported in ChEMBL document CHEMBL2385069, “Thiourea derivatives incorporating a hippuric acid moiety: synthesis and evaluation of antibacterial and antifungal activities” (2013).
≈ marks a conversion by molar mass, not a printed value.

Experiments:
Format in all cases: functional
Pseudomonas aeruginosa [1] = experiment: Antibacterial activity against Pseudomonas aeruginosa ATCC 27953 assessed as diameter of inhibition zone at 1 mg/ml after 24 hrs by agar well diffusion method; settings: ATCC 27953, 24 h, read-out: DIZ
Bacillus subtilis [2] = experiment: Antibacterial activity against Bacillus subtilis ATCC 6633 assessed as diameter of inhibition zone at 1 mg/ml after 24 hrs by agar well diffusion method; settings: ATCC 6633, 24 h, read-out: DIZ
Escherichia coli [3] = experiment: Antibacterial activity against Escherichia coli ATCC 25922 assessed as diameter of inhibition zone at 1 mg/ml after 24 hrs by agar well diffusion method; settings: ATCC 25922, 24 h, read-out: DIZ
Micrococcus luteus [4] = experiment: Antibacterial activity against Sarcina lutea assessed as diameter of inhibition zone at 1 mg/ml after 24 hrs by agar well diffusion method; settings: read-out: DIZ
Candida albicans [5] = experiment: Antifungal activity against Candida albicans NRRLY-477 assessed as diameter of inhibition zone at 1 mg/ml after 24 hrs by agar well diffusion method; settings: NRRLY-477, 24 h, read-out: DIZ
Priestia megaterium [6] = experiment: Antibacterial activity against Bacillus megaterium ATCC 9885 assessed as diameter of inhibition zone at 1 mg/ml after 24 hrs by agar well diffusion method; settings: ATCC 9885, 24 h, read-out: DIZ
Klebsiella pneumoniae [7] = experiment: Antibacterial activity against Klebsiella pneumoniae ATCC 13883 assessed as diameter of inhibition zone at 1 mg/ml after 24 hrs by agar well diffusion method; settings: ATCC 13883, 24 h, read-out: DIZ
Saccharomyces cerevisiae [8] = experiment: Antifungal activity against Saccharomyces cerevisiae assessed as diameter of inhibition zone at 1 mg/ml after 24 hrs by agar well diffusion method; settings: read-out: DIZ
Staphylococcus aureus [9] = experiment: Antibacterial activity against Staphylococcus aureus ATCC 29213 assessed as diameter of inhibition zone at 1 mg/ml after 24 hrs by agar well diffusion method; settings: ATCC 29213, 24 h, read-out: DIZ
Proteus vulgaris [10] = experiment: Antibacterial activity against Proteus vulgaris assessed as diameter of inhibition zone at 1 mg/ml after 24 hrs by agar well diffusion method; settings: read-out: DIZ
Bacillus subtilis [11] = experiment: Antibacterial activity against Bacillus subtilis ATCC 6633 after 24 hrs by two fold serial dilution technique; settings: ATCC 6633, 24 h
Pseudomonas aeruginosa [12] = experiment: Antibacterial activity against Pseudomonas aeruginosa ATCC 27953 after 24 hrs by two fold serial dilution technique; settings: ATCC 27953, 24 h
Priestia megaterium [13] = experiment: Antibacterial activity against Bacillus megaterium ATCC 9885 after 24 hrs by two fold serial dilution technique; settings: ATCC 9885, 24 h
Micrococcus luteus [14] = experiment: Antibacterial activity against Sarcina lutea after 24 hrs by two fold serial dilution technique
Saccharomyces cerevisiae [15] = experiment: Antifungal activity against Saccharomyces cerevisiae after 24 hrs by two fold serial dilution technique
Escherichia coli [16] = experiment: Antibacterial activity against Escherichia coli ATCC 25922 after 24 hrs by two fold serial dilution technique; settings: ATCC 25922, 24 h
Candida albicans [17] = experiment: Antifungal activity against Candida albicans NRRLY-477 after 24 hrs by two fold serial dilution technique; settings: NRRLY-477, 24 h
Staphylococcus aureus [18] = experiment: Antibacterial activity against Staphylococcus aureus ATCC 29213 after 24 hrs by two fold serial dilution technique; settings: ATCC 29213, 24 h
Proteus vulgaris [19] = experiment: Antibacterial activity against Proteus vulgaris after 24 hrs by two fold serial dilution technique
Klebsiella pneumoniae [20] = experiment: Antibacterial activity against Klebsiella pneumoniae ATCC 13883 after 24 hrs by two fold serial dilution technique; settings: ATCC 13883, 24 h

MIC (Bacillus subtilis [11]) [µg/mL] | MIC (Pseudomonas aeruginosa [12]) [µg/mL] | MIC (Priestia megaterium [13]) [µg/mL] | MIC (Micrococcus luteus [14]) [µg/mL] | MIC (Saccharomyces cerevisiae [15]) [µg/mL] | MIC (Escherichia coli [16]) [µg/mL] | MIC (Candida albicans [17]) [µg/mL] | MIC (Staphylococcus aureus [18]) [µg/mL] | MIC (Proteus vulgaris [19]) [µg/mL] | MIC (Klebsiella pneumoniae [20]) [µg/mL] | Structure (SMILES) | zone of inhibition at 1000 µg/mL (Pseudomonas aeruginosa [1]) [mm] | zone of inhibition at 1000 µg/mL (Bacillus subtilis [2]) [mm] | zone of inhibition at 1000 µg/mL (Escherichia coli [3]) [mm] | zone of inhibition at 1000 µg/mL (Micrococcus luteus [4]) [mm] | zone of inhibition at 1000 µg/mL (Candida albicans [5]) [mm] | zone of inhibition at 1000 µg/mL (Priestia megaterium [6]) [mm] | zone of inhibition at 1000 µg/mL (Klebsiella pneumoniae [7]) [mm] | zone of inhibition at 1000 µg/mL (Saccharomyces cerevisiae [8]) [mm] | zone of inhibition at 1000 µg/mL (Staphylococcus aureus [9]) [mm] | zone of inhibition at 1000 µg/mL (Proteus vulgaris [10]) [mm]
 |  |  |  |  |  |  |  |  |  | CCCCCCNC(=S)Nc1ccc(C(=O)NCC(=O)O)cc1 | 0 | 9 | 11 | 24 | 0 | 23 | 12 | 9 | 0 | 0
 |  |  |  |  |  |  |  |  |  | O=C(O)CNC(=O)c1ccc(NC(=S)Nc2ccccc2)cc1 | 12 | 17 | 19 | 0 | 0 | 13 | 0 | 0 | 0 | 0
 |  |  |  |  |  |  |  |  |  | Cc1ccc(NC(=S)Nc2ccc(C(=O)NCC(=O)O)cc2)cc1 | 0 | 0 | 9 | 25 | 18 | 19 | 0 | 0 | 0 | 20
 |  |  |  |  |  |  |  |  |  | O=C(O)CNC(=O)c1ccc(NC(=S)Nc2ccc(F)cc2)cc1 | 22 | 0 | 22 | 20 | 9 | 15 | 20 | 13 | 20 | 20
 |  |  |  |  |  |  |  |  |  | O=C(O)CNC(=O)c1ccc(NC(=S)Nc2c3ccccc3nc3ccccc23)cc1 | 15 | 12 | 15 | 0 | 11 | 18 | 23 | 0 | 20 | 20
 |  |  |  |  |  |  |  |  |  | O=C(O)CNC(=O)c1ccc(NC(=S)Nc2ccccc2C(=O)Nc2cccc(C(F)(F)F)c2)cc1 | 0 | 16 | 0 | 0 | 0 | 14 | 0 | 15 | 0 | 10
 |  |  |  |  |  |  |  |  |  | CCOc1ccc(NC(=O)c2ccccc2NC(=S)Nc2ccc(C(=O)NCC(=O)O)cc2)cc1 | 0 | 0 | 0 | 0 | 9 | 0 | 20 | 18 | 20 | 15
 |  |  |  |  |  |  |  |  |  | NS(=O)(=O)c1ccc(NC(=S)Nc2ccc(C(=O)NCC(=O)O)cc2)cc1 | 19 | 18 | 18 | 20 | 0 | 20 | 22 | 17 | 14 | 20
 |  |  |  |  |  |  |  |  |  | CC(=O)NS(=O)(=O)c1ccc(NC(=S)Nc2ccc(C(=O)NCC(=O)O)cc2)cc1 | 12 | 18 | 0 | 0 | 0 | 20 | 0 | 0 | 15 | 0
 |  |  |  |  |  |  |  |  |  | N=C(N)NS(=O)(=O)c1ccc(NC(=S)Nc2ccc(C(=O)NCC(=O)O)cc2)cc1 | 0 | 16 | 0 | 0 | 0 | 20 | 0 | 15 | 0 | 0
 |  |  |  |  |  |  |  |  |  | O=C(O)CNC(=O)c1ccc(NC(=S)Nc2ccc(S(=O)(=O)Nc3nccs3)cc2)cc1 | 30 | 15 | 0 | 0 | 0 | 14 | 0 | 0 | 0 | 0
 |  |  |  |  |  |  |  |  |  | O=C(O)CNC(=O)c1ccc(NC(=S)Nc2ccc(S(=O)(=O)Nc3ccccn3)cc2)cc1 | 21 | 12 | 21 | 0 | 11 | 0 | 20 | 20 | 23 | 0
50 (≈ 116 µM) | 12.5 (≈ 29 µM) | 12.5 (≈ 29 µM) | 25 (≈ 58.1 µM) | 50 (≈ 116 µM) | 12.5 (≈ 29 µM) | 12.5 (≈ 29 µM) | 50 (≈ 116 µM) | 25 (≈ 58.1 µM) | 12.5 (≈ 29 µM) | O=C(O)CNC(=O)c1ccc(NC(=S)Nc2ccc(C(=O)NCC(=O)O)cc2)cc1 | 22 | 18 | 22 | 15 | 19 | 17 | 23 | 18 | 22 | 21
12.5 (≈ 21.5 µM) | 12.5 (≈ 21.5 µM) | 12.5 (≈ 21.5 µM) | 50 (≈ 86.1 µM) | 25 (≈ 43.1 µM) | 25 (≈ 43.1 µM) | 12.5 (≈ 21.5 µM) | 50 (≈ 86.1 µM) | 25 (≈ 43.1 µM) | 12.5 (≈ 21.5 µM) | O=C(O)CNC(=O)c1ccc(NC(=S)Nc2ccc(NC(=S)Nc3ccc(C(=O)NCC(=O)O)cc3)cc2)cc1 | 22 | 31 | 24 | 10 | 26 | 24 | 16 | 26 | 20 | 18
 |  |  |  |  |  |  |  |  |  | Cc1c(NC(=S)Nc2ccc(C(=O)NCC(=O)O)cc2)c(=O)n(-c2ccccc2)n1C | 22 | 15 | 14 | 24 | 0 | 18 | 19 | 17 | 18 | 19
 |  |  |  |  |  |  |  |  |  | O=C(O)CNC(=O)c1ccc(NC(=S)NNC(=O)c2ccccc2)cc1 | 15 | 12 | 15 | 20 | 9 | 10 | 20 | 13 | 22 | 15
 |  |  |  |  |  |  |  |  |  | O=C(O)CNC(=O)c1ccc(NC(=S)NNC(=O)c2ccncc2)cc1 | 12 | 0 | 0 | 24 | 12 | 23 | 0 | 0 | 0 | 0
 |  |  |  |  |  |  |  |  |  | CCCCNC(=S)Nc1ccc(C(=O)NCC(=O)O)cc1 | 22 | 13 | 22 | 9 | 10 | 16 | 20 | 18 | 22 | 21
